The source of these data is BindingDB's records for patent US10196390 (Nimbus Lakshmi, Inc., 2019).

In general, Ki refers to a measure of affinity in units of concentration, obtained from inhibition or displacement. A higher Ki goes with a looser hold on the target.

This test deals with Tyrosine-protein kinase JAK2 (Homo sapiens, UniProt O60674).
Tyrosine-protein kinase JAK2, sequence (O60674 whole entry): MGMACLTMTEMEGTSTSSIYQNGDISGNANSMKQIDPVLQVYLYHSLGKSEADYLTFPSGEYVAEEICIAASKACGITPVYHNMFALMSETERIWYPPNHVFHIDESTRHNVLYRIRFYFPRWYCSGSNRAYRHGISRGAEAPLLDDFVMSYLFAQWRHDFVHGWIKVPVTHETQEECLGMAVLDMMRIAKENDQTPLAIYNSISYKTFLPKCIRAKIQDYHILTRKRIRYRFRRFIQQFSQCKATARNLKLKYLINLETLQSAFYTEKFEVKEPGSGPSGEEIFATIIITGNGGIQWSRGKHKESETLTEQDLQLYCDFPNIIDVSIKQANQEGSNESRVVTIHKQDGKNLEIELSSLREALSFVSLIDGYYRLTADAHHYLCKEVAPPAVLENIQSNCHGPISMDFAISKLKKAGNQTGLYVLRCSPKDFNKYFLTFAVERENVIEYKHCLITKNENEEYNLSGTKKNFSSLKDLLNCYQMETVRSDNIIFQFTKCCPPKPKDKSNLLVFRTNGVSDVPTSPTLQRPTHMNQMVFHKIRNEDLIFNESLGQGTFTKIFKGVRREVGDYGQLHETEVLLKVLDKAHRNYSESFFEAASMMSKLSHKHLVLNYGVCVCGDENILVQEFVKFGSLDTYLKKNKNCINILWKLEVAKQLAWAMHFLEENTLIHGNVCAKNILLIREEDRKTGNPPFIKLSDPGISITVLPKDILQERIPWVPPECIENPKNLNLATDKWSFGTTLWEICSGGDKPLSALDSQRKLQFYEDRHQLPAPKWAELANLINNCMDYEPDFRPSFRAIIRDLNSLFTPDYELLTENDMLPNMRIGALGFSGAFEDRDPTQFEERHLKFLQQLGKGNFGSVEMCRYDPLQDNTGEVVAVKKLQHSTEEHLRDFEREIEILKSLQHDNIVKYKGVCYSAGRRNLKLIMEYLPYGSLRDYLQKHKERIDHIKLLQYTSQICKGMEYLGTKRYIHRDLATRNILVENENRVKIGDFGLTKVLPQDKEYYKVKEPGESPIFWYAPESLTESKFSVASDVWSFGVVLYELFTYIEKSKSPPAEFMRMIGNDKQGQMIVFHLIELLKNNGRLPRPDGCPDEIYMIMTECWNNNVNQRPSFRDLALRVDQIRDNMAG
Consider `Cc1ccc(Nc2nc(-c3c(F)cccc3F)nc3c2C(=O)NC3)cc1` [US10196390, Compound I-21], for which the inhibitory constant (Ki) is > 1000 nM.
Under `COC(=O)Cc1ncc(Nc2nc(-c3c(F)cccc3F)nc3c2C(=O)NC3)cn1` [US10196390, Compound I-166] stands > 1000 nM; under `CCNC(=O)Cc1ncc(Nc2nc(-c3c(F)cccc3F)nc3c2C(=O)NC3)cn1` [US10196390, Compound I-169], > 1000 nM.
Under `O=C1NCc2nc(-c3c(F)cccc3F)nc(Nc3ccc(OC(F)(F)F)cc3)c21` [US10196390, Compound I-184] stands > 1000 nM; under `O=C1NCc2nc(-c3c(F)cccc3F)nc(Nc3ccc(C4CCCCC4)cc3)c21` [US10196390, Compound I-197], > 1000 nM; under `O=C1NCc2nc(-c3c(F)cccc3F)cc(Nc3ccc(N4CCCC4)cn3)c21` [US10196390, Compound I-205], > 1000 nM.
In the case of `O=C1NCc2nc(-c3c(F)cccc3F)cc(Nc3ccc(N4CCC5(CC5)C4)cn3)c21` [US10196390, Compound I-233], the inhibition constant (Ki) is > 1000 nM.
The figure for `O=C1NCc2nc(-c3c(F)cccc3F)cc(Nc3ccc(F)cn3)c21` [US10196390, Compound I-234] is < 10 nM; for `O=C1NCc2nc(-c3c(F)cccc3F)nc(Nc3ccc(S(=O)(=O)C(F)(F)F)cc3)c21` [US10196390, Compound I-236] it is > 1000 nM.
The figure for `CC(C)N1CCN(c2ccc(Nc3cc(-c4c(F)cccc4F)nc4c3C(=O)NC4)nc2)CC1` [US10196390, Compound I-256] is < 10 nM; for `COc1ccc(Nc2cc(-c3c(F)cccc3C#N)nc3c2C(=O)NC3)nc1` [US10196390, Compound I-258] it is < 10 nM.
The figure for `CCN(CC)C(=O)c1ccc(Nc2cc(-c3c(F)cccc3F)nc3c2C(=O)NC3)cc1` [US10196390, Compound I-259] is < 10 nM; for `C[C@H]1COC[C@H](C)N1c1ccc(Nc2cc(-c3c(F)cccc3F)nc3c2C(=O)NC3)nc1` [US10196390, Compound I-264] it is < 10 nM.
Turning to `CC1(C)CCC(=O)N1c1ccc(Nc2cc(-c3c(F)cccc3F)nc3c2C(=O)NC3)nc1` [US10196390, Compound I-272], the inhibition constant (Ki) is < 10 nM.
On to `CN(c1ccc(Nc2cc(-c3c(F)cccc3F)nc3c2C(=O)NC3)nc1)C(C)(C)C` [US10196390, Compound I-274], for which the Ki is < 10 nM.
With `O=C1NCc2nc(-c3c(F)cccc3F)cc(Nc3ccc(NS(=O)(=O)C(F)F)cn3)c21` [US10196390, Compound I-277], the inhibition constant Ki is < 10 nM.
Under `CC(C)(C)Nc1ccc(Nc2cc(-c3c(F)cccc3F)nc3c2C(=O)NC3)nc1` [US10196390, Compound I-278] stands < 10 nM.
With `CCNC(=O)c1ccc(Nc2cc(-c3c(F)cccc3C#N)nc3c2C(=O)NC3)nc1` [US10196390, Compound I-282], the inhibition constant (Ki) is < 10 nM.
The figure for `O=C1NCc2nc(-c3c(F)cccc3F)cc(Nc3ccc(C(=O)N4CCC(F)(F)CC4)cc3)c21` [US10196390, Compound I-283] is < 10 nM; for `C[C@@H]1COC[C@@H](C)N1C(=O)c1ccc(Nc2cc(-c3c(F)cccc3F)nc3c2C(=O)NC3)cc1` [US10196390, Compound I-285] it is < 10 nM.
In the case of `N#Cc1cccc(F)c1-c1cc(Nc2ccc(C(=O)N3CCOCC3)cc2)c2c(n1)CNC2=O` [US10196390, Compound I-287], the inhibition constant (Ki) was < 10 nM.
For `CC1CC(O)CC(C)N1c1ccc(Nc2cc(-c3c(F)cccc3F)nc3c2C(=O)NC3)nc1` (stereo not drawn) [US10196390, Compound I-288], the Ki is < 10 nM.
Regarding `Cc1ccc(Nc2nc(-c3c(F)cccc3F)nc3c2C(=O)NC3)cc1F` [US10196390, Compound I-292], the inhibition constant Ki was > 1000 nM.
